Measured values as given in patent US20220324815A1, “2-PHENOXY-PYRIMIDINE DERIVATIVES AS HERBICIDAL COMPOUNDS” (SYNGENTA CROP PROTECTION AG, priority 2019, published 2022).

Assays:
Format in all cases: in vivo
Settings in all cases: 250 g/ha unless otherwise stated, evaluated after 13 days, five-point scale
[1] = tested on: Setaria faberi (SETFA); assay: Test 1 glasshouse herbicide test, pre-emergence application (Table B2)
Experimental: (§1) Seeds of a variety of test species are sown in standard soil in pots (Lolium perenne (LOLPE), Solanum nigrum (SOLNI), Amaranthus retoflexus (AMARE), Setaria faberi (SETFA), Echinochloa crus-galli (ECHCG) and Ipomoea hederacea (IPOHE)). After cultivation for one day (pre-emergence) or after 8 days cultivation (post-emergence) under controlled conditions in a glasshouse (at 24/16° C., day/night; 14 hours light; 65% humidity), the plants are sprayed with an aqueous spray solution derived from the formulation of the technical active ingredient in acetone/water (50:50) solution containing 0.5% Tween 20 (polyoxyethelyene sorbitan monolaurate, CAS RN 9005-64-5). Compounds are applied at 250 g/ha unless otherwise stated. The test plants are then grown in a glasshouse under controlled conditions in a glasshouse (at 24/16° C., day/night; 14 hours light; 65% humidity) and watered twice daily. After 13 days for pre and post-emergence, the test is evaluated for the percentage damage caused to the plant. The biological activities (% phytotoxicity) are shown in Tables B1 and B2 below using a five-point scale (5=81 to 100%; 4=61 to 80%; 3=41 to 60%; 2=21 to 40%; 1=0 to 20%).

[2] = tested on: Amaranthus retoflexus (AMARE); assay: as above
Experimental: as §1

[3] = tested on: Echinochloa crus-galli (ECHCG); assay: as above
Experimental: as §1

[4] = tested on: Ipomoea hederacea (IPOHE); assay: as above
Experimental: as §1

[5] = tested on: Setaria faberi (SETFA); assay: Test 1 glasshouse herbicide test, post-emergence application (Table B1)
Experimental: as §1

[6] = tested on: Amaranthus retoflexus (AMARE); assay: as above
Experimental: as §1

[7] = tested on: Echinochloa crus-galli (ECHCG); assay: as above
Experimental: as §1

[8] = tested on: Ipomoea hederacea (IPOHE); assay: as above
Experimental: as §1

N#Cc1cccc(Oc2ncc(Br)cn2)c1SCCCC(F)(F)F [Compound A119]
% phytotoxicity SETFA, pre-emergence application [1]: 5 (5=81 to 100%) | % phytotoxicity AMARE, pre-emergence application [2]: 5 (5=81 to 100%) | % phytotoxicity ECHCG, pre-emergence application [3]: 5 (5=81 to 100%) | % phytotoxicity IPOHE, pre-emergence application [4]: 5 (5=81 to 100%) | % phytotoxicity SETFA, post-emergence application [5]: 4 (4=61 to 80%) | % phytotoxicity AMARE, post-emergence application [6]: 5 (5=81 to 100%) | % phytotoxicity ECHCG, post-emergence application [7]: 4 (4=61 to 80%) | % phytotoxicity IPOHE, post-emergence application [8]: 4 (4=61 to 80%)

N#Cc1cccc(Oc2ncc(Cl)cn2)c1S(=O)(=O)CCCCCC(F)(F)F [Compound A92]
% phytotoxicity SETFA, pre-emergence application [1]: 4 (4=61 to 80%) | % phytotoxicity AMARE, pre-emergence application [2]: 5 (5=81 to 100%) | % phytotoxicity ECHCG, pre-emergence application [3]: 4 (4=61 to 80%) | % phytotoxicity IPOHE, pre-emergence application [4]: 1 (1=0 to 20%) | % phytotoxicity SETFA, post-emergence application [5]: 2 (2=21 to 40%) | % phytotoxicity AMARE, post-emergence application [6]: 5 (5=81 to 100%) | % phytotoxicity ECHCG, post-emergence application [7]: 3 (3=41 to 60%) | % phytotoxicity IPOHE, post-emergence application [8]: 2 (2=21 to 40%)

CCCCCSc1ccccc1Oc1ncc(Cl)cn1 [Compound A44]
% phytotoxicity SETFA, pre-emergence application [1]: 5 (5=81 to 100%) | % phytotoxicity AMARE, pre-emergence application [2]: 5 (5=81 to 100%) | % phytotoxicity ECHCG, pre-emergence application [3]: 5 (5=81 to 100%) | % phytotoxicity IPOHE, pre-emergence application [4]: 1 (1=0 to 20%) | % phytotoxicity SETFA, post-emergence application [5]: 2 (2=21 to 40%) | % phytotoxicity AMARE, post-emergence application [6]: 5 (5=81 to 100%) | % phytotoxicity ECHCG, post-emergence application [7]: 4 (4=61 to 80%) | % phytotoxicity IPOHE, post-emergence application [8]: 1 (1=0 to 20%)

N#Cc1cccc(Oc2ncc(Cl)cn2)c1SCCOC(F)(F)F [Compound A106]
% phytotoxicity SETFA, pre-emergence application [1]: 5 (5=81 to 100%) | % phytotoxicity AMARE, pre-emergence application [2]: 5 (5=81 to 100%) | % phytotoxicity ECHCG, pre-emergence application [3]: 5 (5=81 to 100%) | % phytotoxicity IPOHE, pre-emergence application [4]: 2 (2=21 to 40%) | % phytotoxicity SETFA, post-emergence application [5]: 4 (4=61 to 80%) | % phytotoxicity AMARE, post-emergence application [6]: 5 (5=81 to 100%) | % phytotoxicity ECHCG, post-emergence application [7]: 5 (5=81 to 100%) | % phytotoxicity IPOHE, post-emergence application [8]: 3 (3=41 to 60%)

CCCC(C)CSc1ccccc1Oc1ncc(Cl)cn1 (racemic) [Compound A69]
% phytotoxicity SETFA, pre-emergence application [1]: 4 (4=61 to 80%) | % phytotoxicity AMARE, pre-emergence application [2]: 1 (1=0 to 20%) | % phytotoxicity ECHCG, pre-emergence application [3]: 3 (3=41 to 60%) | % phytotoxicity IPOHE, pre-emergence application [4]: 1 (1=0 to 20%) | % phytotoxicity SETFA, post-emergence application [5]: 2 (2=21 to 40%) | % phytotoxicity AMARE, post-emergence application [6]: 4 (4=61 to 80%) | % phytotoxicity ECHCG, post-emergence application [7]: 4 (4=61 to 80%) | % phytotoxicity IPOHE, post-emergence application [8]: 1 (1=0 to 20%)

N#Cc1cccc(Oc2ncc(Cl)cn2)c1S(=O)(=O)CCCOC(F)(F)F [Compound A117]
% phytotoxicity SETFA, pre-emergence application [1]: 5 (5=81 to 100%) | % phytotoxicity AMARE, pre-emergence application [2]: 5 (5=81 to 100%) | % phytotoxicity ECHCG, pre-emergence application [3]: 4 (4=61 to 80%) | % phytotoxicity IPOHE, pre-emergence application [4]: 5 (5=81 to 100%) | % phytotoxicity SETFA, post-emergence application [5]: 4 (4=61 to 80%) | % phytotoxicity AMARE, post-emergence application [6]: 5 (5=81 to 100%) | % phytotoxicity ECHCG, post-emergence application [7]: 4 (4=61 to 80%) | % phytotoxicity IPOHE, post-emergence application [8]: 3 (3=41 to 60%)

C#CCS(=O)(=O)c1ccccc1Oc1ncc(Cl)cn1 [Compound A46]
% phytotoxicity SETFA, pre-emergence application [1]: 1 (1=0 to 20%) | % phytotoxicity AMARE, pre-emergence application [2]: 1 (1=0 to 20%) | % phytotoxicity ECHCG, pre-emergence application [3]: 1 (1=0 to 20%) | % phytotoxicity IPOHE, pre-emergence application [4]: 1 (1=0 to 20%) | % phytotoxicity SETFA, post-emergence application [5]: 1 (1=0 to 20%) | % phytotoxicity AMARE, post-emergence application [6]: 1 (1=0 to 20%) | % phytotoxicity ECHCG, post-emergence application [7]: 1 (1=0 to 20%) | % phytotoxicity IPOHE, post-emergence application [8]: 1 (1=0 to 20%)

N#Cc1cccc(Oc2ncc(Cl)cn2)c1S(=O)(=O)CCCC(F)F [Compound A102]
% phytotoxicity SETFA, pre-emergence application [1]: 5 (5=81 to 100%) | % phytotoxicity AMARE, pre-emergence application [2]: 5 (5=81 to 100%) | % phytotoxicity ECHCG, pre-emergence application [3]: 5 (5=81 to 100%) | % phytotoxicity IPOHE, pre-emergence application [4]: 5 (5=81 to 100%) | % phytotoxicity SETFA, post-emergence application [5]: 4 (4=61 to 80%) | % phytotoxicity AMARE, post-emergence application [6]: 5 (5=81 to 100%) | % phytotoxicity ECHCG, post-emergence application [7]: 4 (4=61 to 80%) | % phytotoxicity IPOHE, post-emergence application [8]: 4 (4=61 to 80%)

N#Cc1cccc(Oc2ncc(Cl)cn2)c1S(=O)(=O)CCOCC(F)(F)F [Compound A108]
% phytotoxicity SETFA, pre-emergence application [1]: 1 (1=0 to 20%) | % phytotoxicity AMARE, pre-emergence application [2]: 5 (5=81 to 100%) | % phytotoxicity ECHCG, pre-emergence application [3]: 1 (1=0 to 20%) | % phytotoxicity IPOHE, pre-emergence application [4]: 1 (1=0 to 20%) | % phytotoxicity SETFA, post-emergence application [5]: 1 (1=0 to 20%) | % phytotoxicity AMARE, post-emergence application [6]: 4 (4=61 to 80%) | % phytotoxicity ECHCG, post-emergence application [7]: 1 (1=0 to 20%) | % phytotoxicity IPOHE, post-emergence application [8]: 2 (2=21 to 40%)

O=S(=O)(CCCF)c1ccccc1Oc1ncc(Cl)cn1 [Compound A82]
% phytotoxicity SETFA, pre-emergence application [1]: 3 (3=41 to 60%) | % phytotoxicity AMARE, pre-emergence application [2]: 5 (5=81 to 100%) | % phytotoxicity ECHCG, pre-emergence application [3]: 3 (3=41 to 60%) | % phytotoxicity IPOHE, pre-emergence application [4]: 1 (1=0 to 20%) | % phytotoxicity SETFA, post-emergence application [5]: 1 (1=0 to 20%) | % phytotoxicity AMARE, post-emergence application [6]: 3 (3=41 to 60%) | % phytotoxicity ECHCG, post-emergence application [7]: 1 (1=0 to 20%) | % phytotoxicity IPOHE, post-emergence application [8]: 3 (3=41 to 60%)

Clc1cnc(Oc2ccccc2SCc2cccc(Cl)c2)nc1 [Compound A66]
% phytotoxicity SETFA, pre-emergence application [1]: 2 (2=21 to 40%) | % phytotoxicity AMARE, pre-emergence application [2]: 1 (1=0 to 20%) | % phytotoxicity ECHCG, pre-emergence application [3]: 2 (2=21 to 40%) | % phytotoxicity IPOHE, pre-emergence application [4]: 1 (1=0 to 20%) | % phytotoxicity SETFA, post-emergence application [5]: 3 (3=41 to 60%) | % phytotoxicity AMARE, post-emergence application [6]: 4 (4=61 to 80%) | % phytotoxicity ECHCG, post-emergence application [7]: 4 (4=61 to 80%) | % phytotoxicity IPOHE, post-emergence application [8]: 2 (2=21 to 40%)

N#Cc1cccc(Oc2ncc(Cl)cn2)c1SCCCOC(F)(F)F [Compound A116, 3-(5-chloropyrimidin-2-yl)oxy-2-[3-(trifluoromethoxy)propylsulfanyl]benzonitrile]
% phytotoxicity SETFA, pre-emergence application [1]: 5 (5=81 to 100%) | % phytotoxicity AMARE, pre-emergence application [2]: 5 (5=81 to 100%) | % phytotoxicity ECHCG, pre-emergence application [3]: 5 (5=81 to 100%) | % phytotoxicity IPOHE, pre-emergence application [4]: 5 (5=81 to 100%) | % phytotoxicity SETFA, post-emergence application [5]: 4 (4=61 to 80%) | % phytotoxicity AMARE, post-emergence application [6]: 5 (5=81 to 100%) | % phytotoxicity ECHCG, post-emergence application [7]: 4 (4=61 to 80%) | % phytotoxicity IPOHE, post-emergence application [8]: 4 (4=61 to 80%)

COCCS(=O)(=O)c1ccccc1Oc1ncc(Cl)cn1 [Compound A42]
% phytotoxicity SETFA, pre-emergence application [1]: 1 (1=0 to 20%) | % phytotoxicity AMARE, pre-emergence application [2]: 1 (1=0 to 20%) | % phytotoxicity ECHCG, pre-emergence application [3]: 1 (1=0 to 20%) | % phytotoxicity IPOHE, pre-emergence application [4]: 1 (1=0 to 20%) | % phytotoxicity SETFA, post-emergence application [5]: 1 (1=0 to 20%) | % phytotoxicity AMARE, post-emergence application [6]: 2 (2=21 to 40%) | % phytotoxicity ECHCG, post-emergence application [7]: 1 (1=0 to 20%) | % phytotoxicity IPOHE, post-emergence application [8]: 1 (1=0 to 20%)
